In patent US20220009922A1, “NOVEL UREA 6,7-DIHYDRO-4H-PYRAZOLO[4,3-C]PYRIDINES ACTIVE AGAINST THE HEPATITIS B VIRUS (HBV)” (AiCuris GmbH & Co. KG, priority 2018, published 2022) one finds EC50 and CC50 data, which are given here for twelve compounds.

Where two headings read alike, the source gives them in different places.

One series relates to HBV. As to conditions: read-out: Cell Activity (EC50).
In the next series the test system is HepAD38 cells. The series is described as follows: Cell viability assay (AlamarBlue) in HepAD38 cells. The conditions noted are these: HepAD38 cells in the presence of 0.3 μg/ml tetracycline, six days incubation. (Alamar Blue is a resazurin reagent that responds to reducing activity.)
[1] abbreviates: Hepatitis B virus, HePAD38, 144 h.

As usually defined, the EC50 is the concentration giving half of the maximal effect. In the case of `CC1Cc2n[nH]c(C(=O)N3CC(F)(F)CC34CC4)c2CN1C(=O)Nc1ccc(F)c(Cl)c1` (single isomer, unassigned) [Example 8, N-(3-chloro-4-fluorophenyl)-3-{6,6-difluoro-4-azaspiro[2.4]heptane-4-carbonyl}-6-methyl-2H,4H,5H,6H,7H-pyrazolo[4,3-c]pyridine-5-carboxamide], the concentration for a half-maximal effect (EC50) in the series with HBV (setting [1]) is less than 1000 nM.
The CC50 is the concentration that lowers cell viability or growth by half. Regarding `CC1Cc2n[nH]c(C(=O)N3CC(F)(F)CC34CC4)c2CN1C(=O)Nc1ccc(F)c(Cl)c1` (single isomer, unassigned) [Example 9, N-(3-chloro-4-fluorophenyl)-3-{6,6-difluoro-4-azaspiro[2.4]heptane-4-carbonyl}-6-methyl-2H,4H,5H,6H,7H-pyrazolo[4,3-c]pyridine-5-carboxamide], in the series on HBV (HepAD38 cells, HBV DNA in supernatant at day 6, qPCR), the EC50 was less than 1000 nM. Besides, the 50% cytotoxic concentration (CC50) with HepAD38 cells was more than 10 µM.
With `CN(C(=O)c1n[nH]c2c1CN(C(=O)Nc1ccc(F)c(Cl)c1)CC2)C1(COC(F)F)CC1` [Example 1, N5-(3-chloro-4-fluorophenyl)-N3-{1-[(difluoromethoxy)methyl]cyclopropyl}-N3-methyl-1H,4H,5H,6H,7H-pyrazolo[4,3-c]pyridine-3,5-dicarboxamide], the EC50 in the series with HBV (setting [1]) is less than 1000 nM.
Still for that read-out and setting: under `COCC1(N(C)C(=O)c2n[nH]c3c2CN(C(=O)Nc2ccc(F)c(Cl)c2)CC3)CC1` [Example 2, N5-(3-chloro-4-fluorophenyl)-N3-[1-(methoxymethyl)cyclopropyl]-N3-methyl-1H,4H,5H,6H,7H-pyrazolo[4,3-c]pyridine-3,5-dicarboxamide] stands less than 1000 nM; under `CN(C(=O)c1n[nH]c2c1CN(C(=O)Nc1ccc(F)c(Cl)c1)CC2)C1(CO)CC1` [Example 3, N5-(3-chloro-4-fluorophenyl)-N3-[1-(hydroxymethyl)cyclopropyl]-N3-methyl-1H,4H,5H,6H,7H-pyrazolo[4,3-c]pyridine-3,5-dicarboxamide], less than 1000 nM; under `COCC1(N(C)C(=O)c2n[nH]c3c2CN(C(=O)Nc2ccc(F)c(C#N)c2)CC3)CC1` [Example 4, N5-(3-cyano-4-fluorophenyl)-N3-[1-(methoxymethyl)cyclopropyl]-N3-methyl-1H,4H,5H,6H,7H-pyrazolo[4,3-c]pyridine-3,5-dicarboxamide], less than 1000 nM.
Turning to `CC(C)OCC1(N(C)C(=O)c2n[nH]c3c2CN(C(=O)Nc2ccc(F)c(Cl)c2)CC3)CC1` [Example 5, N5-(3-chloro-4-fluorophenyl)-N3-methyl-N3-{1-[(propan-2-yloxy)methyl]cyclopropyl}-1H,4H,5H,6H,7H-pyrazolo[4,3-c]pyridine-3,5-dicarboxamide], the EC50 in the series with HBV (setting [1]) is less than 1000 nM.
On to `CCOCC1(N(C)C(=O)c2n[nH]c3c2CN(C(=O)Nc2ccc(F)c(Cl)c2)CC3)CC1` [Example 6, N5-(3-chloro-4-fluorophenyl)-N3-[1-(ethoxymethyl)cyclopropyl]-N3-methyl-1H,4H,5H,6H,7H-pyrazolo[4,3-c]pyridine-3,5-dicarboxamide], for which the EC50 with HBV (setting [1]) was less than 1000 nM.
In the case of `O=C(Nc1ccc(F)c(Cl)c1)N1CCc2n[nH]c(C(=O)N3CC(F)(F)CC34CC4)c2C1` [Example 7, N-(3-chloro-4-fluorophenyl)-3-{6,6-difluoro-4-azaspiro[2.4]heptane-4-carbonyl}-2H,4H,5H,6H,7H-pyrazolo[4,3-c]pyridine-5-carboxamide], in the series with HBV (setting [1]), the concentration for a half-maximal effect (EC50) is less than 1000 nM.
Same read-out and setting: under `CN(C(=O)c1[nH]nc2c1CN(C(=O)Nc1ccc(F)c(Cl)c1)CC2)C1(COC(=O)C2(N)CC2)CC1` [Example 10, (1-{-methyl5-[(3-chloro-4-fluorophenyl)carbamoyl]-2H,4H,5H, 6H,7H-pyrazolo[4,3-c]pyridine-3-amido}cyclopropyl)methyl 1-aminocyclopropane-1-carboxylate] stands less than 1000 nM; under `O=C(Nc1ccc(F)c(Cl)c1)N1CCc2n[nH]c(C(=O)N3CCCOCC34CC4)c2C1` [Example 11, N-(3-chloro-4-fluorophenyl)-3-{8-oxa-4-azaspiro[2.6]nonane-4-carbonyl}-2H,4H,5H,6H,7H-pyrazolo[4,3-c]pyridine-5-carboxamide], less than 1000 nM.
For `O=C(Nc1ccc(F)c(Cl)c1)N1CCc2n[nH]c(C(=O)N3CCC(O)CC34CC4)c2C1` (stereo not shown) [Example 12, N-(3-chloro-4-fluorophenyl)-3-{7-hydroxy-4-azaspiro[2.5]octane-4-carbonyl}-2H,4H,5H,6H,7H-pyrazolo[4,3-c]pyridine-5-carboxamide], the EC50 in the series on HBV (setting [1]) is less than 1000 nM.
